Laboratory results: ChEMBL document CHEMBL1137923, “Identification of CJC-1131-albumin bioconjugate as a stable and bioactive GLP-1(7-36) analog” (Bioorg Med Chem Lett, 2004)

Experiments:
[1] = target: T1, Glucagon-like peptide 1 receptor (Homo sapiens, UniProt P43220); test: Inhibitory concentration required against human GLP1 receptor expressed in CHO cell membrane homogenates; format: cell-based
[2] = target: T1, Glucagon-like peptide 1 receptor; test: Effective concentration against human GLP1 receptor expressed in CHO cells; format: cell-based

T1 sequence (P43220 whole entry): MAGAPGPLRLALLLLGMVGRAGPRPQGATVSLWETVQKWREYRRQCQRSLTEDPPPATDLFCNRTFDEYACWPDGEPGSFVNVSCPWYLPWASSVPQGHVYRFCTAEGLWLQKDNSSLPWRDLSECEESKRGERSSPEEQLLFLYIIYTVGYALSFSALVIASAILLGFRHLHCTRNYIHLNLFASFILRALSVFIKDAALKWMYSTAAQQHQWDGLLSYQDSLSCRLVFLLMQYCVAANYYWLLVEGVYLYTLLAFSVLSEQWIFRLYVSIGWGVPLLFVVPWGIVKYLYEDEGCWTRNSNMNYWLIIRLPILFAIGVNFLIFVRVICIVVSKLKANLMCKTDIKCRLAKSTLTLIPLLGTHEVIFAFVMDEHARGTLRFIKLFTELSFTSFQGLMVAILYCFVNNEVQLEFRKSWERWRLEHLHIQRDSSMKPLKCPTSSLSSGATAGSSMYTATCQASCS

Row | IC50 [1] [nM] | EC50 [2] [nM] | Compound
1 | 713 | 28 | CC[C@H](C)[C@H](NC(=O)[C@H](Cc1ccccc1)NC(=O)[C@H](CCC(=O)O)NC(=O)[C@H](CCCCN)NC(=O)[C@H](C)NC(=O)[C@H](C)NC(=O)[C@H](CCC(N)=O)NC(=O)CNC(=O)[C@H](CCC(=O)O)NC(=O)[C@H](CC(C)C)NC(=O)[C@H](Cc1ccc(O)cc1)NC(=O)[C@H](CCCCNC(=O)COCCOCCNC(=O)CCN1C(=O)C=CC1=O)NC(=O)[C@H](CO)NC(=O)[C@@H](NC(=O)[C@H](CC(=O)O)NC(=O)[C@H](CO)NC(=O)[C@@H](NC(=O)[C@H](Cc1ccccc1)NC(=O)[C@@H](NC(=O)CNC(=O)[C@H](CCC(=O)O)NC(=O)[C@H](C)NC(=O)[C@@H](N)Cc1c[nH]cn1)[C@@H](C)O)[C@@H](C)O)C(C)C)C(=O)N[C@@H](C)C(=O)N[C@@H](Cc1c[nH]c2ccccc12)C(=O)N[C@@H](CC(C)C)C(=O)N[C@H](C(=O)N[C@@H](CCCCN)C(=O)NCC(=O)N[C@@H](CCCN=C(N)N)C(N)=O)C(C)C
2 | > 10000 | > 1000 | CC[C@H](C)[C@H](NC(=O)[C@H](CCCCNC(=O)COCCOCCNC(=O)CCN1C(=O)C=CC1=O)NC(=O)[C@H](CCC(=O)O)NC(=O)[C@H](CCCCN)NC(=O)[C@H](C)NC(=O)[C@H](C)NC(=O)[C@H](CCC(N)=O)NC(=O)CNC(=O)[C@H](CCC(=O)O)NC(=O)[C@H](CC(C)C)NC(=O)[C@H](Cc1ccc(O)cc1)NC(=O)[C@H](CO)NC(=O)[C@H](CO)NC(=O)[C@@H](NC(=O)[C@H](CC(=O)O)NC(=O)[C@H](CO)NC(=O)[C@@H](NC(=O)[C@H](Cc1ccccc1)NC(=O)[C@@H](NC(=O)CNC(=O)[C@H](CCC(=O)O)NC(=O)[C@H](C)NC(=O)[C@@H](N)Cc1c[nH]cn1)[C@@H](C)O)[C@@H](C)O)C(C)C)C(=O)N[C@@H](C)C(=O)N[C@@H](Cc1c[nH]c2ccccc12)C(=O)N[C@@H](CC(C)C)C(=O)N[C@H](C(=O)N[C@@H](CCCCN)C(=O)NCC(=O)N[C@@H](CCCN=C(N)N)C(N)=O)C(C)C
